System: PILRA G78 expressing HEK293 cells
Test: mTOR dependence of anti-PILRA antibody-induced pSTAT3 Y705
Assay type: cell-based, human
Details: 2 hours pre-incubation; AZD8055 3.125-50 nM, Torin 1 31.25-500 nM; then 100 nM anti-PILRA mAb 30 mins
Method: To assess if pSTAT3 Y705 induction is mTOR dependent, cells were dosed with mTOR inhibitors Torin 1 (31.25-500 nM) or AZD8055 (3.125-50 nM) for 2 hours before spiking in 100 nM anti-PILRA mAb or isotype control for 30 mins.

In the case of `CCC(=O)N1CCN(c2ccc(-n3c(=O)ccc4cnc5ccc(-c6cnc7ccccc7c6)cc5c43)cc2C(F)(F)F)CC1` [Torin 1], the “blocking of anti-PILRA antibody-induced pSTAT3 Y705 by mTOR inhibitor” value is reported as “partially blocked”.
For `COc1ccc(-c2ccc3c(N4CCOC[C@@H]4C)nc(N4CCOC[C@@H]4C)nc3n2)cc1CO` [AZD8055], the “blocking of anti-PILRA antibody-induced pSTAT3 Y705 by mTOR inhibitor” value was “partially blocked”.

From patent US20260109763A1, “ANTI-PILRA ANTIBODIES, USES THEREOF, AND RELATED METHODS AND REAGENTS” (DENALI THERAPEUTICS INC., priority 2021, published 2026)
